Data as given in patent publication EP4813376A1, “PHARMACEUTICAL COMPOSITION FOR PREVENTION OR TREATMENT OF BREAST CANCER” (Astrion Inc., priority 2023, dated 2025).

Experiments:
MDA-MB-231 cells [1] = assay: CCK assay, proliferation of breast cancer cells; assay type: cell-based, human; settings: MDA-MB-231, 0.1 to 16 µM, 48 hours, absorbance at 450 nm, FIG. 1
Procedure: Human breast cancer cell line MDA-MB-231 cells were plated in a 96-well plate at a density of 1 x 10^5 cells/well and cultured for 24 hours. Thereafter, the cells were treated with compound AON-MG23 of the present invention at various concentrations and cultured for 48 hours. The cells were treated with the compound of the present invention at various concentrations of 0 µM, 0.1 µM, 0.25 µM, 0.5 µM, 1 µM, 2 µM, 4 µM, 8 µM, and 16 µM. 10 µL of cell counting kit (CCK) reagent was added and allowed to react for one hour, and then the absorbance was measured at 450 nm.

[2] = system: six breast cancer cell lines (SUM149, BCX010, BT20, MDA-MB-231-LM3, CAL51, PyMT-N); assay: colony formation test; assay type: cell-based, human; settings: 0.25 µM, 0.5 µM and 1 µM, 11 to 14 days, all six cell lines, FIGS. 2A to 2C
Procedure: To confirm the proliferation inhibitory effect of the compound of the present invention on breast cancer cells, a colony formation test was conducted. Specifically, six breast cancer cell lines (SUM149, BCX010, BT20, MDA-MB-231-LM3, CAL51, PyMT-N) were plated in a 6-well cell culture plate at a density of 250 or 1,000 cells per well. On the next day, the cell culture medium was removed and replaced with a cell culture medium containing compound AON-MG23 of the present invention at concentrations of 0 µM, 0.25 µM, 0.5 µM, and 1 µM. After culturing the cells for 11 to 14 days, the resulting cell colonies were stained and photographed, and then the cell colonies were counted and analyzed using Image J software.

[3] = system: four breast cancer cell lines (SUM149, BCX010, BT20, MDA-MB-231-LM3); assay: soft agar assay (tumorigenicity); assay type: cell-based; settings: Homo sapiens, 336 h, 100 nM, 500 nM, 1000 nM tested, two weeks, FIGS. 3A and 3B, read-out: concentration from which tumorigenicity was inhibited
Procedure: To confirm the tumorigenicity inhibitory effect of the compound of the present invention on breast cancer cells, an […] soft agar assay was performed. Specifically, 0.5% agar or 0.7% agar was added to cell culture media diluted with the compound of the present invention at concentrations of 0 nM, 100 nM, 500 nM, and 1000 nM. 2 ml of 0.5% agar containing the compound of the present invention at various concentrations was added to a 6-well cell culture plate and solidified at room temperature. Thereafter, 1 ml of 1 x 10^4 cells of four breast cancer cell lines (SUM149, BCX010, BT20, MDA-MB-231-LM3) and 1 ml of 0.7% agar containing the compound of the present invention at various concentrations were mixed in a 1:1 ratio to prepare a 0.35% solution, and 2 ml of this solution was placed on top of the solidified 0.5% agar. The mixture was then solidified at room temperature until the upper layer was fixed, and then cells were cultured in an incubator at 37 °C and 5% CO2 for two weeks. The formed cell clones were stained and photographed, and then the cell clones were counted and analyzed using Image J software.

MDA-MB-231 cells [4] = assay: cell migration assay in SPLScar Block plates; assay type: cell-based; settings: Homo sapiens, 24 hours, FIG. 4, read-out: inhibition of migration of MDA-MB-231 cells compared to the control group
Procedure: Human breast cancer cell line MDA-MB-231 cells were seeded in SPLScar Block plates (SPL LIFE SCIENCES) at a density of 7 x 10^4/well and cultured for 24 hours. […], the blocks were removed, and at the same time, compound AON-MG23 of the present invention was applied at various concentrations. Thereafter, cells were cultured in a CO2 incubator at 37 °C for 24 hours. The cells were treated with the compound of the present invention at various concentrations of 0 µM, 0.5 µM, 1 µM, 2 µM, and 4 µM. Photographs were taken before and after each culture, and the migration distance of the cells was measured using Image J software. Based on the results, the inhibition of the cell migration was analyzed.

MDA-MG231-LM3 cells = assay: Transwell membrane filter migration assay; assay type: cell-based, human; settings: cells pre-treated with 0.5 µM, eight hours, FIG. 6
Procedure: Breast cancer cell line MDA-MG231-LM3 cells pre-treated with 0.5 µM of compound AON-MG23 of the present invention and cells that were not treated were prepared. […] The membrane filter seeded with the cells was placed into a 24-well plate supplemented with a cell culture medium containing fetal bovine serum and cultured for eight hours in an incubator at 37°C and 5% CO2. Cells that migrated to the bottom surface of the membrane filter were stained and photographed under a microscope, and counted and analyzed using Image J software.

MDA MB-231 cells = assay: Matrigel invasion assay (Transwell invasion chamber), 20 hours; assay type: cell-based, human; settings: 0.5, 1, 2, 4 µM, FIG. 7
Procedure: Human breast cancer cell line MDA MB-231 cells were seeded at a density of 6 x 10^4 cells/well on top of a filter coated with Matrigel (Transwell invasion chamber, Corning), treated with compound AON-MG23 of the present invention (0, 0.5, 1, 2, 4 µM), and cultured in a CO2 in an incubator at 37 °C for 20 hours. After culture, cell fixation and staining were performed using the Diff-Quick stain Kit (Sysmex, Kobe, Japan). The stained cells were imaged under a microscope, and the cells were counted and statistically analyzed using Image J software.

MDA-MB-231 = assay: Matrigel invasion assay (Transwell membrane insert), 24 hours; assay type: cell-based, human; settings: 0.5 µM and 1 µM, reduction dependent on concentration, FIG. 8
Procedure: Breast cancer cell line MDA-MB-231 was seeded at a density of 6 x 10^4 cells/well on top of a membrane filter coated with Matrigel(Transwell membrane insert, Corning). Thereafter, the cells were treated with compound AON-MG23 of the present invention at concentrations of 0 µM (DMSO), 0.5 µM, and 1 µM, and cultured in a CO2 incubator at 37 °C for 24 hours. After 24 hours of culture, the cells on the bottom surface of the membrane filter were stained and photographed under a microscope, and counted and analyzed using Image J software.

HCC1806 = assay: SRB assay with Bliss synergy scoring, combination with paclitaxel; assay type: cell-based, human; settings: AON-MG23 combined with paclitaxel, HCC1806, five days co-treatment, score > 0 indicates a synergistic effect, FIG. 10B
Procedure: (§1) The combination effect of compound AON-MG23 of the present invention was confirmed using Bliss scoring based on the results of the sulforhodamine B assay (SRB assay). Specifically, human breast cancer cell lines SUM149 and HCC1806 were plated in a 96-well cell culture plate at a density of 1 x 10^3 cells/well. On the next day, paclitaxel, the drug to be tested for the combination effect with compound AON-MG23 of the present invention, was diluted to concentrations for testing, and cells were cultured for 24 hours. After carefully removing the cell culture medium, the cells were co-treated with AON-MG23 and paclitaxel at different concentrations and cultured for five days. […] The absorbance of the dissolved solution was measured at […] using a plate reader. The measured absorbance values were compared to the control group, converted into percentages, and saved in an Excel file format. […] The presence of a synergistic effect was evaluated according to the following criteria based on relevant literature (Bliss, C. I. (1939). The toxicity of poisons applied jointly. Annals of Applied Biology, 26(3), 585-615.): a score > 0 indicates a synergistic effect; a score = 0 indicates an independent effect; and a score < 0 indicates an antagonistic effect.

SUM149 = assay: as above; assay type: cell-based, human; settings: AON-MG23 combined with paclitaxel, SUM149, five days co-treatment, score > 0 indicates a synergistic effect, FIG. 10A
Procedure: as §1

For COc1cc(N2CCC(N(C)C)CC2)ccc1Nc1ncc(Cl)c(Nc2ccccc2N(C2CC2)S(C)(=O)=O)n1 [AON-MG23, N-(2-((5-chloro-2-((4-(4-(dimethylamino)piperidin-1-yl)-2-methoxyphenyl)amino)pyrimidin-4-yl)amino)phenyl)-N-cyclopropylmethanesulfonamide], the “proliferation of breast cancer cells” value (MDA-MB-231 cells [1]) was “inhibited”, the cell colony formation [2] was “inhibited” and the minimal effective concentration [3] was no less than 0.1 µM. The inhibition at 0.5 µM (MDA-MB-231 cells [4]) was 50%, the “cell migration compared to the untreated group” value (MDA-MG231-LM3 cells) was “inhibited” and the “degree of penetration into Matrigel compared to the untreated control group” value (MDA MB-231 cells) was “reduced degree of penetration into Matrigel”. For the same compound, the “degree of penetration into Matrigel compared to the untreated control group” value (MDA-MB-231) was “reduced degree of penetration into Matrigel”, the Bliss synergy scoring (HCC1806) was 9.249 points and the Bliss synergy scoring (SUM149) was 18.743 points.
